Laboratory results as given in PubChem BioAssay AID651569 (Sanford-Burnham Center for Chemical Genomics, 2012).
Calls of active or inactive are those of the source. The rule behind the calls is not given here.

Each molecule was assayed on luminescent cytotoxicity (cell viability) counter-screen (assay: cytotoxicity of Gli-SUFU antagonist hits, dose response, cytotoxicity control for Gli-SUFU antagonist project, cell-based, luminescence, uHTS hits (AID 651569);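 note: compound exposure lasted overnight before the viability readout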).

Row | SMILES | IC50
1 | CC(C)CCOC(=O)C[N+](C)(C)CCOC1CC2CCC1(C)C2(C)C (stereo unspecified) | > 20 µM (inactive)
2 | O=C(/C=C/c1ccco1)Nc1ccc(-c2nc3ccccc3[nH]2)cc1 | > 20 µM (inactive)
3 | CCCCOC(=O)c1[nH]c2c(c1C)C(=O)CC(c1cc(OC)c(OC)c(OC)c1)C2 (stereo unspecified) | > 20 µM (inactive)
4 | CCOC(=O)c1c(NC(=O)COc2ncnc3ccccc23)sc(C(C)=O)c1C | > 20 µM (inactive)
5 | CCC(=O)c1ccc(OCC(O)Cn2c(C)nc3ccccc32)cc1 (stereo unspecified) | > 20 µM (inactive)
6 | COc1ccccc1NS(=O)(=O)c1cccc(C(=O)NC2CCN(Cc3ccccc3)CC2)c1 | > 20 µM (inactive)
7 | CCOc1ccc(-c2cc(C)[n+](CCO)c(-c3ccc(OCC)cc3)c2)cc1 | > 20 µM (inactive)
8 | CC(=O)c1cn(CCOc2ccccc2C)c2ccccc12 | > 20 µM (inactive)
9 | CN1/C(=C\C=Nc2ccccc2)C(C)(C)c2ccccc21 | > 20 µM (inactive)
10 | CCCCCCCOc1ccc(OC(=O)c2cccnc2)cc1 | > 20 µM (inactive)
11 | CNc1nc(NCc2ccccc2)c2ccccc2n1 | > 20 µM (inactive)
12 | O=C(NCCNc1ccnc2cc(Cl)ccc12)c1ccccc1F | > 20 µM (inactive)
13 | C[C@@H]1COC(=O)[C@@H](NC(=O)OCC2c3ccccc3-c3ccccc32)C/C=C\C[C@@H](CC(=O)N(CCO)Cc2ccccc2)C(=O)N1 | > 20 µM (inactive)
14 | COCCn1c(CN2CCC(Cc3ccccc3)CC2)nc2c1c(=O)n(C)c(=O)n2C | > 20 µM (inactive)
15 | COc1ccc(NS(=O)(=O)c2ccc(N3CCCCC3)c(N)c2)cc1 | > 20 µM (inactive)
16 | CCOC(CN=c1nc(N(C)C)ss1)OCC | 18.6 µM
17 | CN(Cc1nccs1)C(=O)c1cc(COc2cccc3cnccc23)on1 | > 20 µM (inactive)
18 | Cc1ccc(NC(=O)COc2ccccc2C(N)=O)cc1S(=O)(=O)N1CCCCCC1 | 19.8 µM
19 | COc1ccc(NS(=O)(=O)c2ccc(N3CCN(CCO)CC3)c([N+](=O)[O-])c2)cc1 | > 20 µM (inactive)
20 | Cc1ncoc1C(=O)NC1CCCc2c1cnn2-c1ccc(C(C)(C)C)cc1 (stereo unspecified) | > 20 µM (inactive)
21 | COc1ccc(CNc2cc(C)nc3ncnn23)c(OC)c1 | > 20 µM (inactive)
22 | Cc1c(C(C)C)c(=O)n(-c2ccc(S(=O)(=O)NCc3ccccc3)cc2)n1C | > 20 µM (inactive)

Row | SMILES | IC50
23 | Cc1nc2ncccn2c1-c1csc(Nc2ccc(O)cc2)n1 | > 20 µM (inactive)
24 | O=C(Nc1ccncc1)c1ccc(-c2ccccc2)cc1 | > 20 µM (inactive)
25 | Fc1ccc(-n2nnnc2-c2cnc(-c3cccs3)nc2C(F)(F)F)cc1 | 17 µM
26 | Cc1ccc(S(=O)(=O)N2CCN(C(=O)c3ccc(S(=O)(=O)N4CCCC4)cc3)CC2)cc1 | > 20 µM (inactive)
27 | CCN(CC)S(=O)(=O)c1ccc(S(=O)(=O)N2CCCC(C(=O)NC3CC3)C2)cc1 (stereo unspecified) | > 20 µM (inactive)
28 | Cc1cc(N/N=C/c2ccc(O)cc2O)nc(-n2nc(C)cc2C)n1 | > 20 µM (inactive)
29 | Cc1nn(C)c(C)c1/C=C/C(=O)c1ccc(Cl)cc1Cl | > 20 µM (inactive)
30 | O=C(N[C@@H]1C/C=C\C[C@@H](CC(=O)N(CCO)Cc2ccccc2)C(=O)N[C@@H](c2ccccc2)COC1=O)OCC1c2ccccc2-c2ccccc21 | > 20 µM (inactive)
31 | O=C(C1CCCCC1)N1CCN(c2ccnc3cc(Cl)ccc23)CC1 | > 20 µM (inactive)
32 | CCn1c(=O)cc(SCC(=O)N2CCN(C3CCCCC3)CC2)c2ccccc21 | > 20 µM (inactive)
33 | O=C(c1cc(COc2cccc3cnccc23)on1)N1CCCC(CCCO)C1 (stereo unspecified) | > 20 µM (inactive)
34 | O=C(Cn1cc(C(=O)c2ccco2)c2ccccc21)Nc1ccccc1F | > 20 µM (inactive)
35 | CC(=O)c1ccc(-n2cc(-c3ccc(C(C)(C)C)cc3)[n+]3c2SCCC3)cc1 | > 20 µM (inactive)
36 | CNS(=O)(=O)c1cccc(C(=O)OCC(=O)c2cc(C)n(CC3CCCO3)c2C)c1 (stereo unspecified) | > 20 µM (inactive)
37 | CC(=O)c1cccc(NS(=O)(=O)c2ccc(-c3cnc(C4CC4)o3)cc2)c1 | 6.78 µM
38 | O=C(C[C@@H]1C/C=C\C[C@@H](NC(=O)OCC2c3ccccc3-c3ccccc32)C(=O)OC[C@@H](Cc2ccccc2)NC1=O)NCCO | > 20 µM (inactive)
39 | CC(=O)c1c(C)[nH]c(C(=O)OCC(=O)Nc2ccc(C)cc2[N+](=O)[O-])c1C | 18.9 µM
40 | CCCCOCCCNc1ncnc2c1[nH]c1ccccc12 | > 20 µM (inactive)
41 | O=C(c1cnc(N2CCN(c3ccccn3)CC2)c2ccccc12)N1CCN(c2cccc(Cl)c2)CC1 | > 20 µM (inactive)
42 | O=C(Cc1csc(Nc2nc(=S)[nH]c3ccccc23)n1)NCCCN1CCN(c2ccccc2F)CC1 | > 20 µM (inactive)
43 | CCC(C)NC(=O)CCC(=O)OC1O[C@H]2OC3(C)CC[C@H]4[C@H](C)CCC(C1C)C24OO3 (stereo partly specified) | > 20 µM (inactive)
44 | Cc1cc(NC(=O)CSc2nc3c([nH]c4ccccc43)c(=O)n2-c2ccccc2F)no1 | > 20 µM (inactive)

Row | SMILES | IC50
45 | COc1ccc(-c2c(C#N)c(N)nc3c2CCc2ccccc2-3)cc1OC | 8.1 µM
46 | Cc1nn(Cc2noc(C(=O)NC3CCC(C)CC3)n2)c(C)c1Br (stereo unspecified) | > 20 µM (inactive)
47 | C=CCOc1nc2c(c(=O)n(C)c(=O)n2C)n1Cc1ccc(Cl)cc1 | > 20 µM (inactive)
48 | Cc1ccc(S(=O)(=O)N2CCN(C(=O)C3CCN(c4ncnc5sc(C)c(C)c45)CC3)CC2)c(C)c1 | > 20 µM (inactive)
49 | COc1ccccc1C(=O)NC(=S)/C=C1/N(C)c2ccccc2C1(C)C | > 20 µM (inactive)
50 | CC(=O)Nc1cccc(OCC(=O)/C=C2\N(C)c3ccccc3C2(C)C)c1 | > 20 µM (inactive)
51 | CCC(C)NS(=O)(=O)c1ccc(S(=O)(=O)N2CCCC3(CCCCC3)C2)cc1 (stereo unspecified) | > 20 µM (inactive)
52 | CN1/C(=C\C(=O)COC(=O)CNC(=O)c2ccc3ccccc3c2)C(C)(C)c2ccccc21 | > 20 µM (inactive)
53 | CC(C)C(=O)NC(=S)/C=C1/N(C)c2ccccc2C1(C)C | > 20 µM (inactive)
54 | Cc1c(C(C)C)c(=O)n(-c2ccc(S(=O)(=O)NC3CCCCC3)cc2)n1C | 9.32 µM
55 | CCOc1ccc2[nH]c3c(N4CCN(C(=O)c5ccco5)CC4)ncnc3c2c1 | > 20 µM (inactive)
56 | COc1ccc(CCNc2ncnc3c2oc2ccccc23)cc1OC | > 20 µM (inactive)
57 | CC(C)(C)c1ccc(C(=O)NC(=S)Nc2ccc(N3CCOCC3)cc2)cc1 | > 20 µM (inactive)
58 | CC(=O)N1c2ccc(S(=O)(=O)N3CCC(C(=O)N4CCCCC4)CC3)cc2CC1C (stereo unspecified) | > 20 µM (inactive)
59 | Brc1ccc(-[n+]2c(-c3ccccc3)cc(-c3ccccc3)cc2-c2ccccc2)cc1 | > 20 µM (inactive)
60 | O=C1N/C(=C\c2ccc(O)cc2)C(O)=C1C=NCc1ccccc1 | 4.41 µM
61 | O=S(=O)(NCc1ccncc1)c1ccc(S(=O)(=O)NCC2CCCO2)cc1 (stereo unspecified) | > 20 µM (inactive)
62 | Cc1nc2ccccc2c2oc(C(=O)N3CCN(C4CCCCC4)CC3)cc12 | > 20 µM (inactive)
63 | CCc1ccc(CN(C)C(=O)c2cc(COc3cccc4cnccc34)on2)cc1 | > 20 µM (inactive)
64 | C/C(=N\NC(=O)C(=O)Nc1ccc(C)c(Cl)c1)c1ccncc1 | > 20 µM (inactive)
65 | CCC(CC)CN1C(N(C)C)=NC[C@@H]1CC(C)C | > 20 µM (inactive)
66 | O=C(Nc1ccc(C(F)(F)F)cc1)C1CCN(S(=O)(=O)c2ccc(N3CCCC3=O)cc2)CC1 | > 20 µM (inactive)
